Experimental data from article PMC7343746, “(2S, 4R)-4-[^18F]Fluoroglutamine for In vivo PET Imaging of Glioma Xenografts in Mice: an Evaluation of Multiple Pharmacokinetic Models” (Molecular Imaging and Biology, 2020).

Assays:
[1] = system: patient-derived BT3 glioma cells; assay: 2-Compartment model, orthotopic model; type: in vivo, BALB/cOlaHsd-Foxn1^nu mouse
Description: (§1) Image analysis was performed using CARIMAS software published and freely distributed by the Turku PET Center (http://turkupetcentre.fi/carimas/). CT scans were used as rough anatomical reference while tumor regions of interest (ROI) were hand-drawn based upon observed spikes of radioactivity in the PET images at locations correlating with recorded tumor grafts. Control muscle ROIs were drawn on the side opposite to the tumor in the leg flank muscle (based on CT) while the blood ROI was drawn based upon heart anatomical location and observed PET image radioactivity spike during the initial 20 s of imaging in the left ventricle. Standardized uptake values (SUV) were calculated with respect to ROI volume, mean and max tumor radioactivity, total injected radioactivity dose (corrected for tail, cannula, and syringe residual radioactivity), and animal weight, and were additionally presented as tumor-to-background ratio (TBR, tumor-to-healthy brain region for intracranial gliomas and tumor-to-muscle for subcutaneous gliomas) as defined by recent glioma research literature standards. Mean and maximum TBR values were reported as ROI radioactivity per volume divided by mean background radioactivity per volume. The blood radioactivity SUV and gender-specific metabolite-corrected blood radioactivity SUV were then applied to multiple pharmacokinetic models to characterize the flux of the tracer (further described in the “Modeling” section).
(§2) Using the heart’s left ventricle ROI from the PET data as an uncorrected radioactivity level input and the bioavailable parent-tracer fraction (results: Eqs. 3 and 4 applied to the uncorrected input) as the corrected input, multiple models were investigated to characterize the tissue uptake dynamics. Two-compartment modeling and Logan, Patlak, and Yokoi plots were used to separately model the pharmacokinetics for the gliomas (both subcutaneous and orthotopic loci) and their respective control tissues (healthy muscle and healthy brain, respectively). Where indicated, means plus/minus standard deviations are reported. Difference in parameters for uncorrected versus correct and target tissue versus their respective control regions were tested with students’ paired t tests with P values lower than 0.05 being considered significant.

[2] = system: patient-derived BT3 glioma cells; assay: Ex vivo autoradiography of brain cryosections, orthotopic glioma; type: in vivo, BALB/cOlaHsd-Foxn1^nu mouse; details: for Autoradiography TBRmean: n = 12 brain sections
Text: See Suppl. Materials in ESM for detailed descriptions of biodistribution, stability, cryosectioning, autoradiography, and histology.

[3] = system: patient-derived BT3 glioma cells; assay: Patlak plot (irreversible uptake model), orthotopic model; type: in vivo, BALB/cOlaHsd-Foxn1^nu mouse; details: for Patlak Ic (AB) y intercept: AB input; for Patlak Ic (PC) y intercept: PC input
Description: as §1, §2

[4] = system: patient-derived BT3 glioma cells; assay: Logan plot (reversible uptake model), orthotopic model; type: in vivo, BALB/cOlaHsd-Foxn1^nu mouse; details: for Logan DV (AB) distribution volume / Logan Ic (AB) y intercept: AB input; for Logan DV (PC) distribution volume / Logan IC (PC) y intercept: PC input
Description: as §1, §2

rat BT4C glioma cells = assay: Patlak plot (irreversible uptake model), subcutaneous model; type: in vivo, Foxn1^nu/nu mouse; details: for Patlak Ic (AB) y intercept: AB input; for Patlak Ic (PC) y intercept: PC input
Description: as §1, §2

[5] = Subject A brain (control), arterial blood input
[6] = Subject A brain (control), plasma-corrected input
[7] = Subject A glioma max., arterial blood input
[8] = Subject A glioma max., plasma-corrected input
[9] = Subject A o.t. glioma, arterial blood input
[10] = Subject A o.t. glioma, plasma-corrected input
[11] = Subject B brain (control), arterial blood input
[12] = Subject B brain (control), plasma-corrected input
[13] = Subject B glioma max., arterial blood input
[14] = Subject B glioma max., plasma-corrected input
[15] = Subject B o.t. glioma, arterial blood input
[16] = Subject B o.t. glioma, plasma-corrected input
[17] = Bone (femoral condyle) average (n = 6)

2-Compartment K1 [1, 5]: 0.015 mL min-1 mL-1
2-Compartment K1/k2 [1, 5]: 0.143 mL mL-1
2-Compartment Vb [1, 5]: 7.82%
2-Compartment k3 [1, 5]: 0.032 min⁻¹
2-Compartment k3*K1/k2 [1, 5]: 0.005
2-Compartment k3/(k2+k3) [1, 5]: 0.235
2-Compartment K1 [1, 6]: 0.016 mL min-1 mL-1
2-Compartment K1/k2 [1, 6]: 0.210 mL mL-1
2-Compartment Vb [1, 6]: 7.77%
2-Compartment k3 [1, 6]: 0.051 min⁻¹
2-Compartment k3*K1/k2 [1, 6]: 0.011
2-Compartment k3/(k2+k3) [1, 6]: 0.396
2-Compartment K1 [1, 7]: 0.149 mL min-1 mL-1
2-Compartment K1/k2 [1, 7]: 1.169 mL mL-1
2-Compartment Vb [1, 7]: 20%
2-Compartment k3 [1, 7]: 0.015 min⁻¹
2-Compartment k3*K1/k2 [1, 7]: 0.018
2-Compartment k3/(k2+k3) [1, 7]: 0.105
2-Compartment K1 [1, 8]: 0.156 mL min-1 mL-1
2-Compartment K1/k2 [1, 8]: 1.769 mL mL-1
2-Compartment Vb [1, 8]: 20%
2-Compartment k3 [1, 8]: 0.023 min⁻¹
2-Compartment k3*K1/k2 [1, 8]: 0.041
2-Compartment k3/(k2+k3) [1, 8]: 0.208
2-Compartment K1 [1, 9]: 0.116 mL min-1 mL-1
2-Compartment K1/k2 [1, 9]: 0.919 mL mL-1
2-Compartment Vb [1, 9]: 11.5%
2-Compartment k3 [1, 9]: 0.018 min⁻¹
2-Compartment k3*K1/k2 [1, 9]: 0.016
2-Compartment k3/(k2+k3) [1, 9]: 0.122
2-Compartment K1 [1, 10]: 0.123 mL min-1 mL-1
2-Compartment K1/k2 [1, 10]: 1.373 mL mL-1
2-Compartment Vb [1, 10]: 11.6%
2-Compartment k3 [1, 10]: 0.027 min⁻¹
2-Compartment k3*K1/k2 [1, 10]: 0.038
2-Compartment k3/(k2+k3) [1, 10]: 0.234
2-Compartment K1 [1, 11]: 0.017 mL min-1 mL-1
2-Compartment K1/k2 [1, 11]: 0.127 mL mL-1
2-Compartment Vb [1, 11]: 5.5%
2-Compartment k3 [1, 11]: 0.031 min⁻¹
2-Compartment k3*K1/k2 [1, 11]: 0.004
2-Compartment k3/(k2+k3) [1, 11]: 0.186
2-Compartment K1 [1, 12]: 0.018 mL min-1 mL-1
2-Compartment K1/k2 [1, 12]: 0.168 mL mL-1
2-Compartment Vb [1, 12]: 5.52%
2-Compartment k3 [1, 12]: 0.051 min⁻¹
2-Compartment k3*K1/k2 [1, 12]: 0.009
2-Compartment k3/(k2+k3) [1, 12]: 0.318
2-Compartment K1 [1, 13]: 0.102 mL min-1 mL-1
2-Compartment K1/k2 [1, 13]: 0.447 mL mL-1
2-Compartment Vb [1, 13]: 13.3%
2-Compartment k3 [1, 13]: 0.036 min⁻¹
2-Compartment k3*K1/k2 [1, 13]: 0.016
2-Compartment k3/(k2+k3) [1, 13]: 0.137
2-Compartment K1 [1, 14]: 0.111 mL min-1 mL-1
2-Compartment K1/k2 [1, 14]: 0.515 mL mL-1
2-Compartment Vb [1, 14]: 13.4%
2-Compartment k3 [1, 14]: 0.062 min⁻¹
2-Compartment k3*K1/k2 [1, 14]: 0.032
2-Compartment k3/(k2+k3) [1, 14]: 0.224
2-Compartment K1 [1, 15]: 0.061 mL min-1 mL-1
2-Compartment K1/k2 [1, 15]: 0.536 mL mL-1
2-Compartment Vb [1, 15]: 10.2%
2-Compartment k3 [1, 15]: 0.020 min⁻¹
2-Compartment k3*K1/k2 [1, 15]: 0.011
2-Compartment k3/(k2+k3) [1, 15]: 0.150
2-Compartment K1 [1, 16]: 0.063 mL min-1 mL-1
2-Compartment K1/k2 [1, 16]: 0.767 mL mL-1
2-Compartment Vb [1, 16]: 10.5%
2-Compartment k3 [1, 16]: 0.032 min⁻¹
2-Compartment k3*K1/k2 [1, 16]: 0.025
2-Compartment k3/(k2+k3) [1, 16]: 0.280
Autoradiography TBRmean ([2]; Subject A): 8.9 ± 1.1 (range 7.2–10.5)
Autoradiography TBRmean ([2]; Subject B): 9.9 ± 0.7 (range 8.9–11.0)
Autoradiography TBRmean ([2]; Subject C): 7.8 ± 0.4 (range 7.3–8.4)
Autoradiography TBR, average ([2]; n = 3 subjects, 36 sections): 8.9 ± 1.1
Patlak Ic (AB) y intercept ([3]; Subject A brain (control)): 0.1654
Patlak Ic (PC) y intercept ([3]; Subject A brain (control)): 0.2100
Patlak Ic (AB) y intercept ([3]; Subject A glioma max.): 1.07
Patlak Ic (PC) y intercept ([3]; Subject A glioma max.): 1.4536
Patlak Ic (AB) y intercept ([3]; Subject A o.t. glioma): 0.7386
Patlak Ic (PC) y intercept ([3]; Subject A o.t. glioma): 0.9480
Patlak Ic (AB) y intercept ([3]; Subject B brain (control)): 0.1316
Patlak Ic (PC) y intercept ([3]; Subject B brain (control)): 0.1563
Patlak Ic (AB) y intercept ([3]; Subject B glioma max.): 0.4556
Patlak Ic (PC) y intercept ([3]; Subject B glioma max.): 0.5434
Patlak Ic (AB) y intercept ([3]; Subject B o.t. glioma): 0.4687
Patlak Ic (PC) y intercept ([3]; Subject B o.t. glioma): 0.5996
Logan DV (AB) distribution volume ([4]; Subject A brain (control)): 1.61
Logan Ic (AB) y intercept ([4]; Subject A brain (control)): -14.15
Logan DV (PC) distribution volume ([4]; Subject A brain (control)): 2.97
Logan IC (PC) y intercept ([4]; Subject A brain (control)): -25.16
Logan DV (AB) distribution volume ([4]; Subject A glioma max.): 0.34
Logan Ic (AB) y intercept ([4]; Subject A glioma max.): -18.72
Logan DV (PC) distribution volume ([4]; Subject A glioma max.): 0.67
Logan IC (PC) y intercept ([4]; Subject A glioma max.): -34.83
Logan DV (AB) distribution volume ([4]; Subject A o.t. glioma): 1.51
Logan Ic (AB) y intercept ([4]; Subject A o.t. glioma): -19.69
Logan DV (PC) distribution volume ([4]; Subject A o.t. glioma): 2.97
Logan IC (PC) y intercept ([4]; Subject A o.t. glioma): -36.03
Logan Ic (AB) y intercept ([4]; Subject B brain (control)): -61.91
Logan DV (PC) distribution volume ([4]; Subject B brain (control)): 2.57
Logan IC (PC) y intercept ([4]; Subject B brain (control)): -50.78
Logan DV (AB) distribution volume ([4]; Subject B glioma max.): 1.27
Logan Ic (AB) y intercept ([4]; Subject B glioma max.): -26.85
Logan DV (PC) distribution volume ([4]; Subject B glioma max.): 0.60
Logan IC (PC) y intercept ([4]; Subject B glioma max.): -36.40
Logan DV (AB) distribution volume ([4]; Subject B o.t. glioma): 0.32
Logan Ic (AB) y intercept ([4]; Subject B o.t. glioma): -20.23
Logan DV (PC) distribution volume ([4]; Subject B o.t. glioma): 1.95
Logan IC (PC) y intercept ([4]; Subject B o.t. glioma): -41.27
Patlak Ic (AB) y intercept (rat BT4C glioma cells; [17]): 0.5752 ± 0.1597
Patlak Ic (PC) y intercept (rat BT4C glioma cells; [17]): 0.3705 ± 0.2561
Patlak Ic (AB) y intercept (rat BT4C glioma cells; Flank muscle average (n = 6)): 0.5790 ± 0.1835
Patlak Ic (PC) y intercept (rat BT4C glioma cells; Flank muscle average (n = 6)): 0.8154 ± 0.2742
Patlak Ic (AB) y intercept (rat BT4C glioma cells; Flank tumor average (n = 6)): 1.0521 ± 0.2524
Patlak Ic (PC) y intercept (rat BT4C glioma cells; Flank tumor average (n = 6)): 1.5318 ± 0.3888
Patlak Ic (AB) y intercept (rat BT4C glioma cells; Neck tumor average (n = 6)): 1.2083 ± 0.1715
Patlak Ic (PC) y intercept (rat BT4C glioma cells; Neck tumor average (n = 6)): 1.7708 ± 0.2668
Irreversible uptake rate relative to reversible uptake rates (rat BT4C glioma cells; Patlak versus reversible models): roughly 15 times lower
Compound: NC(=O)[C@H]([18F])C[C@H](N)C(=O)O [[^18F]FGln, (2S, 4R)-4-[^18F]fluoroglutamine]
